Biological target: T1, Sirt2 (Homo sapiens, UniProt Q8IXJ6)
T1 sequence (Q8IXJ6 34-356): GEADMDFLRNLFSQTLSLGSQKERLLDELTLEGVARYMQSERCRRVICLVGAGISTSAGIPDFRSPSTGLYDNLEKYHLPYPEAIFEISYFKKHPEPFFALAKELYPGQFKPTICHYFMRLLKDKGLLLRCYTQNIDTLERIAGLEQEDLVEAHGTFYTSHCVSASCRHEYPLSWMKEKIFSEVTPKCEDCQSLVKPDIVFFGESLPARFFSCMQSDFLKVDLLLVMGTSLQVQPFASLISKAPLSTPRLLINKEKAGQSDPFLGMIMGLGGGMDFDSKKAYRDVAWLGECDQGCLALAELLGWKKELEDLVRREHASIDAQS
Test: Fluor-de-Lys peptide deacetylation assay, Sirt2
Format: biochemical
Summary of the method: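 Full-length human Sirt2 (E. coli-expressed, purified, His-tag removed) incubated 30 min at 37 °C with 0.1 mM FdL-2 peptide (QPK(acetyl-K)), 0.5 mM NAD+ and compound at 100 μM final in kit buffer. Values corrected with compound-only (no Sirtuin) controls; screen in duplicate, dose-response in triplicate.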

SMILES: CC12Cc3cnc(-c4ccccc4)nc3CC1CCC1C2CCC2(C)C1CCC2(C)O (stereo not drawn) [CSC13, 1,11a,13a-trimethyl-8-phenyl-2,3,3a,3b,4,5,5a,6,11,11a,11b,12,13,13a-tetradecahydro-1H-cyclopenta[5,6]naphtho[1,2-g]quinazolin-1-ol]
- Effect on the activity of Sirt2: inhibition (key: inhibition: significant inhibitory effects (>25% loss of activity); ---: no such effect)
- IC50: 9.7 ± 1.5 µM
- inhibition at 100 µM (read-out: Sirt2 inhibition in the screen): ~80%
